Source: patent publication US12473304B2, “Heterocyclic PAD4 inhibitors” (BRISTOL-MYERS SQUIBB COMPANY, priority 2020, dated 2025)

Target: human PAD4 (hPAD4) (Homo sapiens (Human), UniProt Q9UM07)
Assay: RFMS Human PAD4 Functional Assay 1
Assay type: biochemical
Conditions: RFMS assay 1; 5 nM hPAD4, 250 μM BAEE substrate, 50 μM calcium, 37° C.
Summary of the method: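 Recombinant hPAD4 (5 nM) was preincubated with compound (top 50 μM, 0.5% DMSO) for 30 min at 37 °C, then reacted with 250 μM BAEE for 90 min at 37 °C in pH 7.5 HEPES buffer with 50 μM calcium and 5 μM TPEN. Product was derivatized with phenyl glyoxal and quantified by RapidFire MS.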

Chain of human PAD4 (hPAD4) (Q9UM07 whole entry): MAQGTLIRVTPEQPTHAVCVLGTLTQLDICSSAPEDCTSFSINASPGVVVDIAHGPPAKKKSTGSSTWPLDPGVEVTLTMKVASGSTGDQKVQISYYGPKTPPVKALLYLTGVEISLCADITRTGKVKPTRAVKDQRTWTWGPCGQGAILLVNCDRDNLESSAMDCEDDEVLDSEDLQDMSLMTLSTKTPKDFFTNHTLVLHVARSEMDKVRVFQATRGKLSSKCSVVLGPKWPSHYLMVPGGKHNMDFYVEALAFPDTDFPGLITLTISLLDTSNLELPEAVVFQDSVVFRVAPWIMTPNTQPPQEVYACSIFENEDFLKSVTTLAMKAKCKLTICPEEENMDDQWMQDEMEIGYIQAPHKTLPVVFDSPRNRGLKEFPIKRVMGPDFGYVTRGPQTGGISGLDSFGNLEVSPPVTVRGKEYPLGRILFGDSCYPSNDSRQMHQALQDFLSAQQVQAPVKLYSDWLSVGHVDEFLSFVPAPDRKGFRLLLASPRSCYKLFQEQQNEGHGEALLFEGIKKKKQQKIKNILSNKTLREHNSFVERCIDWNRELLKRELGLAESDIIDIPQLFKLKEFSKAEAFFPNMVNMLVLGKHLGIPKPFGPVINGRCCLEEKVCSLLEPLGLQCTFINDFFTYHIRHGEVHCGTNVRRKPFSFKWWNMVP

IC50	SMILES
30 nM	Cc1c(-c2cc3cccc(C4CCN(C(=O)CO)CC4)c3n2CC2CC2)nn2cc(C(=O)N3CCC[C@@H](N)C3)ccc12 [Example 439, (R)-1-(4-(2-(6-(3-aminopiperidine-1-carbonyl)-3-methylpyrazolo[1,5-a]pyridin-2-yl)-1-(cyclopropylmethyl)-1H-indol-7-yl)piperidin-1-yl)-2-hydroxyethan-1-one]
60 nM	Cc1c(-c2cc3cccc(C4CCN(C(=O)[C@@H]5CCC[C@H](O)C5)CC4)c3n2CC2CC2)nn2cc(C(=O)N3CCC[C@@H](N)C3)ccc12 [Example 440, ((R)-3-aminopiperidin-1-yl)(2-(1-(cyclopropylmethyl)-7-(1-((1R,3S)-3-hydroxycyclohexane-1-carbonyl)piperidin-4-yl)-1H-indol-2-yl)-3-methylpyrazolo[1,5-a]pyridin-6-yl)methanone]
60 nM	CCOCC(=O)N1CCC(c2cccc3cc(-c4nn5cc(C(=O)N6CCC[C@@H](N)C6)ccc5c4C)n(CC4CC4)c23)CC1 [Example 441, (R)-1-(4-(2-(6-(3-aminopiperidine-1-carbonyl)-3-methylpyrazolo[1,5-a]pyridin-2-yl)-1-(cyclopropylmethyl)-1H-indol-7-yl)piperidin-1-yl)-2-ethoxyethan-1-one]
30 nM	CCOCC(=O)N1CCC(c2cccc3cc(-c4nn5cc(C(=O)N6C[C@H](N)C[C@@H](F)C6)ccc5c4C)n(CC4CC4)c23)CC1 [Example 442, 1-(4-(2-(6-((3R,5R)-3-amino-5-fluoropiperidine-1-carbonyl)-3-methylpyrazolo[1,5-a]pyridin-2-yl)-1-(cyclopropylmethyl)-1H-indol-7-yl)piperidin-1-yl)-2-ethoxyethan-1-one]
130 nM	Cc1c(-c2cc3cccc(C4CCN(C(=O)[C@H]5CC[C@H](O)CC5)CC4)c3n2CC2CC2)nn2cc(C(=O)N3CCC[C@@H](N)C3)ccc12 [Example 443, ((R)-3-aminopiperidin-1-yl)(2-(1-(cyclopropylmethyl)-7-(1-((1r,4r)-4-hydroxycyclohexane-1-carbonyl)piperidin-4-yl)-1H-indol-2-yl)-3-methylpyrazolo[1,5-a]pyridin-6-yl)methanone]
10 nM	Cc1c(-c2cc3cccc(C4CCN(C(=O)[C@H]5CC[C@@H](O)CC5)CC4)c3n2CC2CC2)nn2cc(C(=O)N3C[C@H](N)C[C@@H](F)C3)ccc12 [Example 444, ((3R,5R)-3-amino-5-fluoropiperidin-1-yl)(2-(1-(cyclopropylmethyl)-7-(1-((1s,4s)-4-hydroxycyclohexane-1-carbonyl)piperidin-4-yl)-1H-indol-2-yl)-3-methylpyrazolo[1,5-a]pyridin-6-yl)methanone]
160 nM	Cc1c(-c2cc3cccc(C4CCN(C(=O)CC(C)C)CC4)c3n2CC2CC2)nn2cc(C(=O)N3C[C@H](N)C[C@@H](F)C3)ccc12 [Example 445, 1-(4-(2-(6-((3R,5R)-3-amino-5-fluoropiperidine-1-carbonyl)-3-methylpyrazolo[1,5-a]pyridin-2-yl)-1-(cyclopropylmethyl)-1H-indol-7-yl)piperidin-1-yl)-3-methylbutan-1-one]
130 nM	Cc1c(-c2cc3cccc(C4CCN(C(=O)CC(C)C)CC4)c3n2CC2CC2)nn2cc(C(=O)N3CCC[C@@H](N)C3)ccc12 [Example 446, (R)-1-(4-(2-(6-(3-aminopiperidine-1-carbonyl)-3-methylpyrazolo[1,5-a]pyridin-2-yl)-1-(cyclopropylmethyl)-1H-indol-7-yl)piperidin-1-yl)-3-methylbutan-1-one]
170 nM	Cc1c(-c2cc3cccc(C4CCN(C(=O)[C@H]5CCC[C@@H](O)C5)CC4)c3n2CC2CC2)nn2cc(C(=O)N3CCC[C@@H](N)C3)ccc12 [Example 447, ((R)-3-aminopiperidin-1-yl)(2-(1-(cyclopropylmethyl)-7-(1-((1S,3R)-3-hydroxycyclohexane-1-carbonyl)piperidin-4-yl)-1H-indol-2-yl)-3-methylpyrazolo[1,5-a]pyridin-6-yl)methanone]
70 nM	Cc1c(-c2cc3cccc(C4CCN(C(=O)[C@H]5CCC[C@@H](O)C5)CC4)c3n2CC2CC2)nn2cc(C(=O)N3C[C@H](N)C[C@@H](F)C3)ccc12 [Example 448, ((3R,5R)-3-amino-5-fluoropiperidin-1-yl)(2-(1-(cyclopropylmethyl)-7-(1-((1S,3R)-3-hydroxycyclohexane-1-carbonyl)piperidin-4-yl)-1H-indol-2-yl)-3-methylpyrazolo[1,5-a]pyridin-6-yl)methanone]
50 nM	Cc1c(-c2cc3cccc(C4CCN(C(=O)[C@@H]5CCC[C@H](O)C5)CC4)c3n2CC2CC2)nn2cc(C(=O)N3C[C@H](N)C[C@@H](F)C3)ccc12 [Example 449, ((3R,5R)-3-amino-5-fluoropiperidin-1-yl)(2-(1-(cyclopropylmethyl)-7-(1-((1R,3S)-3-hydroxycyclohexane-1-carbonyl)piperidin-4-yl)-1H-indol-2-yl)-3-methylpyrazolo[1,5-a]pyridin-6-yl)methanone]
50 nM	Cc1c(-c2cc3cccc(C4CCN(C(=O)[C@H]5CC[C@@H](O)CC5)CC4)c3n2CC2CC2)nn2cc(C(=O)N3CCC[C@@H](N)C3)ccc12 [Example 450, ((R)-3-aminopiperidin-1-yl)(2-(1-(cyclopropylmethyl)-7-(1-((2s,4s)-4-hydroxycyclohexane-1-carbonyl)piperidin-4-yl)-1H-indol-2-yl)-3-methylpyrazolo[1,5-a]pyridin-6-yl)methanone]
10 nM	Cc1c(-c2cc3cccc(C4CCN(C(=O)[C@H]5CC[C@H](O)CC5)CC4)c3n2CC2CC2)nn2cc(C(=O)N3C[C@H](N)C[C@@H](F)C3)ccc12 [Example 451, ((3R,5R)-3-amino-5-fluoropiperidin-1-yl)(2-(1-(cyclopropylmethyl)-7-(1-((1r,4r)-4-hydroxycyclohexane-1-carbonyl)piperidin-4-yl)-1H-indol-2-yl)-3-methylpyrazolo[1,5-a]pyridin-6-yl)methanone]
30 nM	CC(=O)N1CCC(c2cccc3cc(-c4nn5cc(C(=O)N6C[C@H](N)C[C@@H](F)C6)ccc5c4C)n(CC4CC4)c23)CC1 [Example 452, 1-(4-(2-(6-((3R,5R)-3-amino-5-fluoropiperidine-1-carbonyl)-3-methylpyrazolo[1,5-a]pyridin-2-yl)-1-(cyclopropylmethyl)-1H-indol-7-yl)piperidin-1-yl)ethan-1-one]
10 nM	COCC(=O)N1CCC(c2cccc3cc(-c4nn5cc(C(=O)N6CC7CCC6[C@@H]7N)ccc5c4C)n(CC4CC4)c23)CC1 (stereo partly drawn) [Example 453, 1-(4-(2-(6-((7R)-7-amino-2-azabicyclo[2.2.1]heptane-2-carbonyl)-3-methylpyrazolo[1,5-a]pyridin-2-yl)-1-(cyclopropylmethyl)-1H-indol-7-yl)piperidin-1-yl)-2-methoxyethan-1-one]
550 nM	CO[C@@H](C)C(=O)N1CCC(c2cccc3cc(-c4nn5cc(C(=O)N6CCC[C@@H](N)C6)ccc5c4C)n(CC4CC4)c23)CC1 [Example 454, (S)-1-(4-(2-(6-((R)-3-aminopiperidine-1-carbonyl)-3-methylpyrazolo[1,5-a]pyridin-2-yl)-1-(cyclopropylmethyl)-1H-indol-7-yl)piperidin-1-yl)-2-methoxypropan-1-one]
270 nM	COCC(=O)N1CCC(c2cccc3cc(-c4nn5cc(C(=O)N6CCC[C@@H](N)C6)ccc5c4C)n(CC4CC4)c23)CC1 [Example 455, (R)-1-(4-(2-(6-(3-aminopiperidine-1-carbonyl)-3-methylpyrazolo[1,5-a]pyridin-2-yl)-1-(cyclopropylmethyl)-1H-indol-7-yl)piperidin-1-yl)-2-methoxyethan-1-one]
140 nM	CO[C@@H](C)C(=O)N1CCC(c2cccc3cc(-c4nn5cc(C(=O)N6C[C@H](N)C[C@@H](F)C6)ccc5c4C)n(CC4CC4)c23)CC1 [Example 459, (S)-1-(4-(2-(6-((3R,5R)-3-amino-5-fluoropiperidine-1-carbonyl)-3-methylpyrazolo[1,5-a]pyridin-2-yl)-1-(cyclopropylmethyl)-1H-indol-7-yl)piperidin-1-yl)-2-methoxypropan-1-one]
70 nM	CO[C@H](C)C(=O)N1CCC(c2cccc3cc(-c4nn5cc(C(=O)N6CCC[C@@H](N)C6)ccc5c4C)n(CC4CC4)c23)CC1 [Example 460, (R)-1-(4-(2-(6-((R)-3-aminopiperidine-1-carbonyl)-3-methylpyrazolo[1,5-a]pyridin-2-yl)-1-(cyclopropylmethyl)-1H-indol-7-yl)piperidin-1-yl)-2-methoxypropan-1-one]
80 nM	CO[C@H](C)C(=O)N1CCC(c2cccc3cc(-c4nn5cc(C(=O)N6C[C@H](N)C[C@@H](F)C6)ccc5c4C)n(CC4CC4)c23)CC1 [Example 461, (R)-1-(4-(2-(6-((3R,5R)-3-amino-5-fluoropiperidine-1-carbonyl)-3-methylpyrazolo[1,5-a]pyridin-2-yl)-1-(cyclopropylmethyl)-1H-indol-7-yl)piperidin-1-yl)-2-methoxypropan-1-one]
180 nM	Cc1c(-c2cc3cccc(C4CCN(C(=O)c5cccs5)CC4)c3n2CC2CC2)nn2cc(C(=O)N3CCC[C@@H](N)C3)ccc12 [Example 464, (R)-(3-aminopiperidin-1-yl)(2-(1-(cyclopropylmethyl)-7-(1-(thiophene-2-carbonyl)piperidin-4-yl)-1H-indol-2-yl)-3-methylpyrazolo[1,5-a]pyridin-6-yl)methanone]
100 nM	COC(=O)N1CCC(c2cccc3cc(-c4nn5cc(C(=O)N6CCC[C@@H](N)C6)ccc5c4C)n(CC4CC4)c23)CC1 [Example 468, Methyl (R)-4-(2-(6-(3-aminopiperidine-1-carbonyl)-3-methylpyrazolo[1,5-a]pyridin-2-yl)-1-(cyclopropylmethyl)-1H-indol-7-yl)piperidine-1-carboxylate]
